Measured values as given in PubChem BioAssay AID2060896 (Molecular Pharmacology Branch, DTP, NCI, 2025).

Test system: 941728-121-R-J1-PDC complex spheroid viability
Test: Anticancer human tumor 941728-121-R-J1-PDC patient-derived lung adenocarcinoma cell line growth inhibition [RAS]
Conditions: for IC50: curve of first compound; for viability, T/C: stronger effect = lower value
Procedure, shortened: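 Multi-cell-type spheroids: tumor cells plus HUVEC endothelial cells and mesenchymal stem cells. RAS-pathway inhibitors were combined with targeted agents, each dosed in half-log steps down from clinical Cmax, or from 10 microM when Cmax was unknown.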

[1] = second compound 0.00316 µM, first compound 0.0316 µM
[2] = second compound 0.00316 µM, first compound 0.1 µM
[3] = second compound 0.00316 µM, first compound 0.316 µM
[4] = second compound 0.00316 µM, first compound 1 µM
[5] = second compound 0.01 µM, first compound 0.0316 µM
[6] = second compound 0.01 µM, first compound 0.1 µM
[7] = second compound 0.01 µM, first compound 0.316 µM
[8] = second compound 0.01 µM, first compound 1 µM
[9] = second compound 0.0316 µM, first compound 0.0316 µM
[10] = second compound 0.0316 µM, first compound 0.1 µM
[11] = second compound 0.0316 µM, first compound 0.316 µM
[12] = second compound 0.0316 µM, first compound 1 µM
[13] = second compound 0.1 µM, first compound 0.0316 µM
[14] = second compound 0.1 µM, first compound 0.1 µM
[15] = second compound 0.1 µM, first compound 0.316 µM
[16] = second compound 0.1 µM, first compound 1 µM
[17] = second compound 0.316 µM, first compound 0.0316 µM
[18] = second compound 0.316 µM, first compound 0.1 µM
[19] = second compound 0.316 µM, first compound 0.316 µM
[20] = second compound 0.316 µM, first compound 1 µM
[21] = second compound 1 µM, first compound 0.0316 µM
[22] = second compound 1 µM, first compound 0.1 µM
[23] = second compound 1 µM, first compound 0.316 µM
[24] = second compound 1 µM, first compound 1 µM
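Also: spheroids exposed to compounds for 7 days before readout.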
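For viability, T/C in this document: 100% = DMSO vehicle control viability.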

`NC1c2ccccc2OC12CCN(c1cnc3c(N4CCCc5ncccc54)n[nH]c3n1)CC2` (stereo unspecified) + CCn1c(-c2cccnc2C(C)OC)c2c3cc(ccc31)N1CCOC(CC(NC(=O)C(C(C)C)N(C)C(=O)C3(F)CCN(C(=O)C#CC(C)(C)N(C)C)CC3)C(=O)N3CCCC(N3)C(=O)OCC(C)(C)C2)C1 gave an IC50 (second compound 0.000949 µM) of under 31.6 nM, an IC50 (second compound 0.003 µM) of under 31.6 nM and an IC50 (second compound 0.00949 µM) of under 31.6 nM. It also gave an IC50 (second compound 0.03 µM) of under 31.6 nM, an IC50 (second compound 0.0949 µM) of under 31.6 nM and an IC50 (second compound 0.3 µM) of under 31.6 nM. It also gave a viability, T/C (second compound 0.000949 µM, first compound 0.0316 µM) of 18.5%, a viability, T/C (second compound 0.000949 µM, first compound 0.1 µM) of 17.7% and a viability, T/C (second compound 0.000949 µM, first compound 0.316 µM) of 12.8%. For the same compound, the viability, T/C (second compound 0.000949 µM, first compound 1 µM) was 17.6%, the viability, T/C (second compound 0.000949 µM, first compound 3.16 µM) was 16.6% and the viability, T/C (second compound 0.000949 µM, first compound 10 µM) was 13.9%. For the same compound, the viability, T/C (second compound 0.003 µM, first compound 0.0316 µM) was 16.5%, the viability, T/C (second compound 0.003 µM, first compound 0.1 µM) was 15.7% and the viability, T/C (second compound 0.003 µM, first compound 0.316 µM) was 15.1%. For the same compound, the viability, T/C (second compound 0.003 µM, first compound 1 µM) was 15.9%, the viability, T/C (second compound 0.003 µM, first compound 3.16 µM) was 17.1% and the viability, T/C (second compound 0.003 µM, first compound 10 µM) was 13.5%. It also gave a viability, T/C (second compound 0.00949 µM, first compound 0.0316 µM) of 17.8%, a viability, T/C (second compound 0.00949 µM, first compound 0.1 µM) of 15.3% and a viability, T/C (second compound 0.00949 µM, first compound 0.316 µM) of 17.9%. For the same compound, the viability, T/C (second compound 0.00949 µM, first compound 1 µM) was 18.3%, the viability, T/C (second compound 0.00949 µM, first compound 3.16 µM) was 16.7% and the viability, T/C (second compound 0.00949 µM, first compound 10 µM) was 15.4%. It also gave a viability, T/C (second compound 0.03 µM, first compound 0.0316 µM) of 19.2%, a viability, T/C (second compound 0.03 µM, first compound 0.1 µM) of 17.6% and a viability, T/C (second compound 0.03 µM, first compound 0.316 µM) of 18.8%. For the same compound, the viability, T/C (second compound 0.03 µM, first compound 1 µM) was 17.1%, the viability, T/C (second compound 0.03 µM, first compound 3.16 µM) was 16.1% and the viability, T/C (second compound 0.03 µM, first compound 10 µM) was 20.3%. It also gave a viability, T/C (second compound 0.0949 µM, first compound 0.0316 µM) of 19.7%, a viability, T/C (second compound 0.0949 µM, first compound 0.1 µM) of 19.4% and a viability, T/C (second compound 0.0949 µM, first compound 0.316 µM) of 19%. For the same compound, the viability, T/C (second compound 0.0949 µM, first compound 1 µM) was 18.9%, the viability, T/C (second compound 0.0949 µM, first compound 3.16 µM) was 16% and the viability, T/C (second compound 0.0949 µM, first compound 10 µM) was 20.2%. The viability, T/C (second compound 0.3 µM, first compound 0.0316 µM) was 20.2%, the viability, T/C (second compound 0.3 µM, first compound 0.1 µM) was 20.5% and the viability, T/C (second compound 0.3 µM, first compound 0.316 µM) was 20.8%. The viability, T/C (second compound 0.3 µM, first compound 1 µM) was 18.2%, the viability, T/C (second compound 0.3 µM, first compound 3.16 µM) was 18.6% and the viability, T/C (second compound 0.3 µM, first compound 10 µM) was 22.6%.
For `C=CC(=O)Nc1cc(Nc2nccc(-c3cn(C)c4ccccc34)n2)c(OC)cc1N(C)CCN(C)C` + C=CC(=O)N1CCN(c2nc(OCC3CCCN3C)nc3c(F)c(-c4nc(N)cc(C)c4C(F)(F)F)c(Cl)cc23)C(C)C1, the IC50 (second compound 0.00316 µM) was under 3.16 nM, the IC50 (second compound 0.01 µM) was under 3.16 nM and the IC50 (second compound 0.0316 µM) was under 3.16 nM. It also gave an IC50 (second compound 0.1 µM) of under 3.16 nM, an IC50 (second compound 0.316 µM) of under 3.16 nM and an IC50 (second compound 1 µM) of under 3.16 nM. It also gave a viability, T/C (second compound 0.00316 µM, first compound 0.00316 µM) of 17.3%, a viability, T/C (second compound 0.00316 µM, first compound 0.01 µM) of 25.6% and a viability, T/C [1] of 17.1%. For the same compound, the viability, T/C [2] was 21.1%, the viability, T/C [3] was 17.6% and the viability, T/C [4] was 16.7%. It also gave a viability, T/C (second compound 0.01 µM, first compound 0.00316 µM) of 20.4%, a viability, T/C (second compound 0.01 µM, first compound 0.01 µM) of 18.3% and a viability, T/C [5] of 19.5%. It also gave a viability, T/C [6] of 18.2%, a viability, T/C [7] of 14.4% and a viability, T/C [8] of 17.3%. It also gave a viability, T/C (second compound 0.0316 µM, first compound 0.00316 µM) of 18.4%, a viability, T/C (second compound 0.0316 µM, first compound 0.01 µM) of 16.9% and a viability, T/C [9] of 17.2%. The viability, T/C [10] was 17.9%, the viability, T/C [11] was 17.5% and the viability, T/C [12] was 15.8%. It also gave a viability, T/C (second compound 0.1 µM, first compound 0.00316 µM) of 21.1%, a viability, T/C (second compound 0.1 µM, first compound 0.01 µM) of 19.7% and a viability, T/C [13] of 15.5%. The viability, T/C [14] was 15.8%, the viability, T/C [15] was 18.7% and the viability, T/C [16] was 16.4%. The viability, T/C (second compound 0.316 µM, first compound 0.00316 µM) was 19.8%, the viability, T/C (second compound 0.316 µM, first compound 0.01 µM) was 18.1% and the viability, T/C [17] was 15.7%. For the same compound, the viability, T/C [18] was 17.1%, the viability, T/C [19] was 19.7% and the viability, T/C [20] was 15.6%. For the same compound, the viability, T/C (second compound 1 µM, first compound 0.00316 µM) was 20.6%, the viability, T/C (second compound 1 µM, first compound 0.01 µM) was 15.7% and the viability, T/C [21] was 18.2%. It also gave a viability, T/C [22] of 17.3%, a viability, T/C [23] of 18.9% and a viability, T/C [24] of 16.2%.
Work on `CC(Nc1ccc2c(c1)OCCn1cc(N3C(=O)OCC3C(F)F)nc1-2)C(N)=O` (stereo unspecified) + C=CC(=O)N1CCN(c2nc(OCC3CCCN3C)nc3c(F)c(-c4nc(N)cc(C)c4C(F)(F)F)c(Cl)cc23)C(C)C1 yielded an IC50 (second compound 0.00316 µM) of under 31.6 nM, an IC50 (second compound 0.01 µM) of under 31.6 nM and an IC50 (second compound 0.0316 µM) of under 31.6 nM. The IC50 (second compound 0.1 µM) was under 31.6 nM, the IC50 (second compound 0.316 µM) was under 31.6 nM and the IC50 (second compound 1 µM) was under 31.6 nM. It also gave a viability, T/C [1] of 16.6%, a viability, T/C [2] of 15.2% and a viability, T/C [3] of 15.4%. For the same compound, the viability, T/C [4] was 15.4%, the viability, T/C (second compound 0.00316 µM, first compound 3.16 µM) was 12.8% and the viability, T/C (second compound 0.00316 µM, first compound 10 µM) was 12%. It also gave a viability, T/C [5] of 17.7%, a viability, T/C [6] of 14.9% and a viability, T/C [7] of 15.2%. It also gave a viability, T/C [8] of 12.9%, a viability, T/C (second compound 0.01 µM, first compound 3.16 µM) of 12.2% and a viability, T/C (second compound 0.01 µM, first compound 10 µM) of 10.5%. It also gave a viability, T/C [9] of 19.2%, a viability, T/C [10] of 14.6% and a viability, T/C [11] of 13.4%. It also gave a viability, T/C [12] of 12.9%, a viability, T/C (second compound 0.0316 µM, first compound 3.16 µM) of 10.7% and a viability, T/C (second compound 0.0316 µM, first compound 10 µM) of 10.8%. The viability, T/C [13] was 18.3%, the viability, T/C [14] was 15.3% and the viability, T/C [15] was 12.8%. The viability, T/C [16] was 13.8%, the viability, T/C (second compound 0.1 µM, first compound 3.16 µM) was 11.5% and the viability, T/C (second compound 0.1 µM, first compound 10 µM) was 10.8%. The viability, T/C [17] was 17.5%, the viability, T/C [18] was 15.3% and the viability, T/C [19] was 13.4%. For the same compound, the viability, T/C [20] was 15.1%, the viability, T/C (second compound 0.316 µM, first compound 3.16 µM) was 13.6% and the viability, T/C (second compound 0.316 µM, first compound 10 µM) was 11.6%. The viability, T/C [21] was 14.9%, the viability, T/C [22] was 15.7% and the viability, T/C [23] was 14.3%. It also gave a viability, T/C [24] of 13.4%, a viability, T/C (second compound 1 µM, first compound 3.16 µM) of 12.6% and a viability, T/C (second compound 1 µM, first compound 10 µM) of 11.8%.
